Measured values as given in ChEMBL document CHEMBL1127594, “Inhibitors of acyl-CoA:cholesterol O-acyltransferase. 11. Structure-activity relationships of several series of compounds derived from N-(chlorocarbonyl) isocyanate” (J Med Chem, 1994).

Columns and labels:
O-acyltransferase = O-acyltransferase (Oryctolagus cuniculus, UniProt G1SFD9); experiment: In vitro Acyl coenzyme A:cholesterol acyltransferase inhibitory activity (IAI) was determined by measuring the incorporation of [1-14C]oleolyl-CoA into cholesterol esters by intestinal microsomes isolated from cholesterol-fed rabbits; set-up: species or system Intestine
Chain of O-acyltransferase (G1SFD9 1-524): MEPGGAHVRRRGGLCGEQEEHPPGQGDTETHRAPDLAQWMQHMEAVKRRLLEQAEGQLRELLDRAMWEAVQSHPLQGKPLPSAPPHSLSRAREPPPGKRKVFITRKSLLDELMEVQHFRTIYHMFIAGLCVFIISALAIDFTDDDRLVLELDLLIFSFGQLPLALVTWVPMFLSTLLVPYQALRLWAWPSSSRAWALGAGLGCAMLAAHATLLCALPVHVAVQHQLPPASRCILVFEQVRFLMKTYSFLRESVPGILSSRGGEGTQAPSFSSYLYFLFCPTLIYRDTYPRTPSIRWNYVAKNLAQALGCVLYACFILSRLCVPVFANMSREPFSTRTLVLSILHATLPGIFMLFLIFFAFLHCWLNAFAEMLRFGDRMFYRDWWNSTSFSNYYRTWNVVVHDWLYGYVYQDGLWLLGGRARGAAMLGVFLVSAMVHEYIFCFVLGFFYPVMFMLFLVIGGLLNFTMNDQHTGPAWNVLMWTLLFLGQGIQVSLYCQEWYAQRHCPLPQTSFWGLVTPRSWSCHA

Rattus norvegicus = experiment: In vivo hypocholesterolemic activity was measured in an acute, cholesterol-fed rat model (APCC) at 30 mg/kg dose.; type: functional

| SMILES | IC50 (O-acyltransferase) [µM] | Delta TC (Rattus norvegicus) [%] |
| --- | --- | --- |
| CCCCCCCCCCCOC(=O)NC(=O)Oc1c(C(C)C)cccc1C(C)C | 0.14 | <-65 |
| CCCCCCCCCCCCC(C)OC(=O)NC(=O)Oc1c(F)cccc1F (racemic) | > 1 | <-35 |
| CCCCN(CCCC)C(=O)NC(=O)Nc1c(C(C)C)cccc1C(C)C | 0.25 | <-30 |
| CCCCCCCCSC(=O)NC(=O)Oc1c(C(C)C)cccc1C(C)C | 0.16 | <-63 |
| CCCCCCOC(=O)NC(=O)Oc1c(C(C)C)cccc1C(C)C | 0.053 | <-38 |
| CCCCCCCCCCCCC(C)OC(=O)NC(=O)Oc1c(C(C)C)cccc1C(C)C (racemic) | 0.017 | <-50 |
| CCCCCCCCCCCCC(C)(C)OC(=O)NC(=O)Oc1c(C(C)C)cccc1C(C)C | 0.021 | <-51 |
| CC(C)(C)c1cccc(C(C)(C)C)c1OC(=O)NC(=O)Oc1c(C(C)(C)C)cccc1C(C)(C)C | 1.2 | <-23 |
| CCCCCCCCOC(=O)NC(=O)Oc1c(C(C)C)cccc1C(C)C | 0.25 | <-47 |
| CC(C)c1cccc(C(C)C)c1NC(=O)NC(=O)N1CCC(c2ccccc2)CC1 | 0.89 | 3 |
| CCCCCCCCCCSC(=O)NC(=O)Oc1c(C(C)C)cccc1C(C)C | 0.13 | <-52 |
| CC(C)c1cccc(C(C)C)c1OC(=O)NC(=O)Oc1ccccc1 | 1.8 | <-29 |
| CC(C)c1cccc(C(C)C)c1NC(=O)NC(=O)N1c2ccccc2Cc2ccccc21 | 0.89 | -18 |
| CC(C)c1cccc(C(C)C)c1OC(=O)NC(=O)Oc1c(C(C)C)cccc1C(C)C | 0.11 | -24 |
| Cc1cccc(C)c1OC(=O)NC(=O)Oc1c(C)cccc1C | > 5 | 4 |
| CCCCCCCCCCCCSC(=O)NC(=O)Oc1c(C(C)C)cccc1C(C)C | 0.016 | <-63 |
| CCCCC[C@H](C)OC(=O)NC(=O)Oc1c(C(C)C)cccc1C(C)C | 0.098 | -25 |
| CCCCCCCCCCCCCOC(=O)NC(=O)Oc1c(C(C)C)cccc1C(C)C | 0.009 | <-69 |
| CC(C)c1cccc(C(C)C)c1OC(=O)NC(=O)SCCc1ccccc1 | 0.88 | -30 |
| CC(C)c1cccc(C(C)C)c1OC(=O)NC(=O)SC1CCCCC1 | 0.097 | <-63 |
| CC(C)c1cccc(C(C)C)c1NC(=O)NC(=O)OC(c1ccccc1)c1ccccc1 | 7.8 | -3 |
| CCCCCCCCCCCCC(C)(C)OC(=O)NC(=O)Nc1c(C(C)C)cccc1C(C)C | 0.065 |  |
| CCCCCCCCCCCCCCCCOC(=O)NC(=O)Oc1c(C(C)C)cccc1C(C)C |  | <-70 |

| SMILES | IC50 (O-acyltransferase) [µM] | Delta TC (Rattus norvegicus) [%] |
| --- | --- | --- |
| CCCCCC(C)OC(=O)NC(=O)Nc1c(C(C)C)cccc1C(C)C (stereo unspecified) | 1.06 | <-22 |
| CC(C)c1cccc(C(C)C)c1OC(=O)NC(=O)Sc1c(C(C)C)cccc1C(C)C | 3.2 | <-20 |
| CCCCCCCC(C)OC(=O)NC(=O)Nc1c(C(C)C)cccc1C(C)C (stereo unspecified) | 0.39 | <-24 |
| CC(C)c1cccc(C(C)C)c1OC(=O)NC(=O)OCCCc1ccccc1 | 0.66 | -24 |
| CC(C)c1cccc(C(C)C)c1NC(=O)N(C)C(=O)N(c1ccccc1)c1ccccc1 | 0.44 |  |
| CC(C)c1cccc(C(C)C)c1NC(=O)NC(=O)N(Cc1ccccc1)C(C)C | 0.75 | <-22 |
| CC(C)c1cccc(C(C)C)c1NC(=O)NC(=O)N(Cc1ccccc1)Cc1ccccc1 | 1.04 | -14 |
| CCCCCCCCCCCCOC(=O)NC(=O)Sc1c(C(C)C)cccc1C(C)C |  | -4 |
| CC(C)c1cccc(C(C)C)c1OC(=O)NC(=O)OCc1ccccc1 | 0.077 | -23 |
| CCCCCCCCCCCCOC(=O)NC(=O)Oc1c(C(C)C)cccc1C(C)C | 0.021 | <-52 |
| CC(C)c1cccc(C(C)C)c1OC(=O)NC(=O)N(c1ccccc1)c1ccccc1 | 0.17 | -3 |
| CC(C)c1cccc(C(C)C)c1NC(=O)NC(=O)N1CCCC1 |  | -7 |
| CCCCCCCC(C)OC(=O)NC(=O)Oc1c(C(C)C)cccc1C(C)C (racemic) | 0.097 | <-56 |
| CCCCC(C)(C)OC(=O)NC(=O)Oc1c(C(C)C)cccc1C(C)C | 0.064 | -29 |
| CCCCCCCCCCCCCCN(C)C(=O)NC(=O)Nc1c(C(C)C)cccc1C(C)C | 1.7 |  |
| CCCCCCCCCCCCCCC(C)OC(=O)NC(=O)Nc1c(C(C)C)cccc1C(C)C (stereo unspecified) | 6.8 | <-26 |
| CC(C)c1cccc(C(C)C)c1OC(=O)NC(=O)SCCN1CCOCC1 | 0.9 | <-33 |
| CCCCCCCCCCCCC(C)SC(=O)NC(=O)Oc1c(C(C)C)cccc1C(C)C (racemic) | 0.008 | <-60 |
| CCCCCCCCCCC(C)OC(=O)NC(=O)Nc1c(C(C)C)cccc1C(C)C (stereo unspecified) |  | <-26 |
| COC(=O)C(OC(=O)NC(=O)Oc1c(C(C)C)cccc1C(C)C)c1ccccc1 (stereo unspecified) | 0.94 | -3 |
| CC(C)c1cccc(C(C)C)c1OC(=O)NC(=O)SCCCc1ccccc1 | 0.069 | <-63 |
| CC(C)c1cccc(C(C)C)c1OC(=O)NC(=O)SCc1ccco1 | 0.47 | <-51 |
| CCCCC[C@@H](C)OC(=O)NC(=O)Oc1c(C(C)C)cccc1C(C)C | 0.13 | <-49 |

| SMILES | IC50 (O-acyltransferase) [µM] | Delta TC (Rattus norvegicus) [%] |
| --- | --- | --- |
| CCCCCCCCCCCSC(=O)NC(=O)Oc1c(C(C)C)cccc1C(C)C | 0.21 | <-54 |
| CC(C)c1cccc(C(C)C)c1OC(=O)NC(=O)OC(c1ccccc1)c1ccccc1 | 0.35 | <-44 |
| CC(C)c1cccc(C(C)C)c1NC(=O)NC(=O)Oc1c(C(C)C)cccc1C(C)C | 0.98 | <-25 |
| CCN(CC)C(=O)NC(=O)Nc1c(C(C)C)cccc1C(C)C |  | -16 |
| CC(C)c1cccc(C(C)C)c1NC(=O)NC(=O)N(c1ccccc1)c1ccccc1 | 0.34 | <-49 |
| CCCCCCCCCCCCCCOC(=O)NC(=O)Oc1c(OC)cc(OC)cc1OC | > 5 | -15 |
| CCCCCCCCCCOC(=O)NC(=O)Oc1c(C(C)C)cccc1C(C)C | 0.074 | <-44 |
| Cc1cccc(C)c1SC(=O)NC(=O)Sc1c(C)cccc1C | > 5 | -13 |
| CC(C)c1cccc(C(C)C)c1OC(=O)NC(=O)NC(c1ccccc1)c1ccccc1 |  | -4 |
| CCCCCCCCCCCCCCCCCCOC(=O)NC(=O)Oc1c(C(C)C)cccc1C(C)C | 1 | <-35 |
| CC(C)c1cccc(C(C)C)c1NC(=O)NC(=O)Nc1c(C(C)C)cccc1C(C)C |  | 0 |
| CC(C)c1cccc(C(C)C)c1OC(=O)NC(=O)Sc1ccccc1 | > 5 | <-37 |
| CCCCCCCCCCC(C)(C)COC(=O)NC(=O)Oc1c(C(C)C)cccc1C(C)C | 0.02 | <-72 |
| CCCCCCCCCCCCOC(=O)NC(=O)Nc1c(C(C)C)cccc1C(C)C | 0.12 | <-38 |
| CCCCCCCCC(C)OC(=O)NC(=O)Nc1c(C(C)C)cccc1C(C)C (stereo unspecified) | 0.75 | <-22 |
| CC(C)c1cccc(C(C)C)c1OC(=O)NC(=O)SCc1ccc(Cl)cc1 | 0.16 | <-50 |
| CC(C)c1cccc(C(C)C)c1NC(=O)NC(=O)N1c2ccccc2Sc2ccccc21 | 1.9 | -6 |
| CCCCCCCCCCC(C)OC(=O)NC(=O)Oc1c(C(C)C)cccc1C(C)C (racemic) | 0.049 | <-66 |
| CC(C)c1cccc(C(C)C)c1OC(=O)NC(=O)SCc1ccccc1 | 0.44 | <-43 |
| O=C(NC(=O)Oc1c(-c2ccccc2)cccc1-c1ccccc1)Oc1c(-c2ccccc2)cccc1-c1ccccc1 | 0.23 | 0 |
| CC(C)c1cccc(C(C)C)c1OC(=O)NC(=O)Oc1cccc2ccccc12 | 3.7 |  |
| CCCCCCCCCCCCCCOC(=O)NC(=O)Oc1c(C(C)C)cccc1C(C)C | 0.01 | <-59 |
| CC(C)c1cccc(C(C)C)c1NC(=O)NC(=O)NC(c1ccccc1)c1ccccc1 |  | 4 |
